Columns and labels:
[1] = molecular target: T1, Vascular endothelial growth factor receptor 2 (Homo sapiens, UniProt P35968)
[2] = molecular target: T1, Vascular endothelial growth factor receptor 2; assay type: functional, cell-based, NIH3T3
Cytochrome P450 3A4 = Cytochrome P450 3A4 (Homo sapiens, UniProt P08684); test: Inhibition of CYP3A4; assay type: ADME
[3] = Half life in mouse at 3 mg/kg, iv; assay type: ADME, organism-based; parameters: dose 3 mg/kg, route intravenous; settings: in vivo
Mus musculus = test: Inhibition of estradiol-induced mouse uterine edema […]; assay type: functional

T1 sequence (P35968 whole entry): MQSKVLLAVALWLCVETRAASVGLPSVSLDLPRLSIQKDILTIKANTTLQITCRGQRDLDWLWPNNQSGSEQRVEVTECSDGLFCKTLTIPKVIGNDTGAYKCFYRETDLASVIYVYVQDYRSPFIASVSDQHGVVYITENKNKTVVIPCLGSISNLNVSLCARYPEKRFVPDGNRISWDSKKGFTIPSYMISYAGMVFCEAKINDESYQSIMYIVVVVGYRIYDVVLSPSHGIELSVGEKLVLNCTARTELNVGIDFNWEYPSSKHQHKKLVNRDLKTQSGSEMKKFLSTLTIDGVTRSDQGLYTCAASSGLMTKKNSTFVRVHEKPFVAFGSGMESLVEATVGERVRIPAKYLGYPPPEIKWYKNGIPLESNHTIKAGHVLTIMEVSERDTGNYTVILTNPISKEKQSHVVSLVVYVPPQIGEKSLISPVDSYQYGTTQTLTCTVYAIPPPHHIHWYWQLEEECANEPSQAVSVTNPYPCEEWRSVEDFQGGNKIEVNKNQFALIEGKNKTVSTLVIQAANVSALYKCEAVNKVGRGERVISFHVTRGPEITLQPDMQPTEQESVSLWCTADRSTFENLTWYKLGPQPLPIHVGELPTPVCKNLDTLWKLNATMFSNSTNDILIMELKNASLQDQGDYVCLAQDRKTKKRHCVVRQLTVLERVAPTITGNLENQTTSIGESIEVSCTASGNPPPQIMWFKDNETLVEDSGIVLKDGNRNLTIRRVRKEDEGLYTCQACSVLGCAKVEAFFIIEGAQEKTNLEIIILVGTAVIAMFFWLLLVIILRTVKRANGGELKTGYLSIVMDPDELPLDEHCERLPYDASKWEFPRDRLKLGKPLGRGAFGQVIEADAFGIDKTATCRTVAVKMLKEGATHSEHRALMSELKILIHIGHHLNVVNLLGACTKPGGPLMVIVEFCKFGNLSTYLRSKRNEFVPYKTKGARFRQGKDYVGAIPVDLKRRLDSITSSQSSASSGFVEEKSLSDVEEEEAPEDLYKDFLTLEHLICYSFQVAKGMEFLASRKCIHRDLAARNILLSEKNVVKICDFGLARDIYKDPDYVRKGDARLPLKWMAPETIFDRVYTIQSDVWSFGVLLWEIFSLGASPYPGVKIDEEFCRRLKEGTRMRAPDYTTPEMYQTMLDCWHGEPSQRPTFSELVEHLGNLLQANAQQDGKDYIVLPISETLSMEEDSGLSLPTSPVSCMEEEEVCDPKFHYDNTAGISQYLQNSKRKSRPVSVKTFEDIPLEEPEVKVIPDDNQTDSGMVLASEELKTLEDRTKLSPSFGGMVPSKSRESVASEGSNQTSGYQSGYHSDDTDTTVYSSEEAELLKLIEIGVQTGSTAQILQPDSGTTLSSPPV
Sequence of Cytochrome P450 3A4 (P08684 whole entry): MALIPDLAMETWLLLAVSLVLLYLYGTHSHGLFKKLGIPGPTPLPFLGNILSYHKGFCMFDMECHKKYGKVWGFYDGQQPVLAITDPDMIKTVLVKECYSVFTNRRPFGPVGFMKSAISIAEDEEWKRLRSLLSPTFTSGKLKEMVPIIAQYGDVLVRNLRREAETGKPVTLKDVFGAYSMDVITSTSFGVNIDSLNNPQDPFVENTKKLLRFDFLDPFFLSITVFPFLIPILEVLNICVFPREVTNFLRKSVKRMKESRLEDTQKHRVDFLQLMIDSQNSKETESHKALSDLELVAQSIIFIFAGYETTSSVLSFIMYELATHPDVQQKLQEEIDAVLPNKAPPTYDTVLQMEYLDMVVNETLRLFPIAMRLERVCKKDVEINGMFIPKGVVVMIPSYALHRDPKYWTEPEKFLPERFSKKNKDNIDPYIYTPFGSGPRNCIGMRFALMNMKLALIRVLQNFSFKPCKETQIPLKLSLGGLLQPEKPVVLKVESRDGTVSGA

Row | Compound | IC50 [1] | IC50 [2] | also measured
1 | Nc1nccc2scc(-c3ccc(NC(=O)Nc4ccccc4)cc3)c12 | 56 nM | 72 nM | –
2 | CCc1cccc(NC(=O)Nc2ccc(-c3csc4ccnc(N)c34)cc2)c1 | 25 nM | 32 nM | –
3 | Cc1cccc(NC(=O)Nc2cccc(-c3csc4ccnc(N)c34)c2)c1 | 250 nM | – | –
4 | Cc1cccc(NC(=O)Cc2ccc(-c3csc4ccnc(N)c34)cc2)c1 | 94 nM | – | –
5 | Cc1cccc(NC(=O)Nc2ccc(-c3csc4c(-c5cccnc5)cnc(N)c34)cc2)c1 | – | – | IC50 (Cytochrome P450 3A4): 250 nM; half-life [3]: 24 min; ED50 (Mus musculus): 2.1 mg/kg
6 | Cc1cccc(NC(=S)Nc2ccc(-c3csc4ccnc(N)c34)cc2)c1 | 410 nM | – | –
7 | Cc1ccc(NC(=O)Nc2ccc(-c3csc4ccnc(N)c34)cc2)cc1 | 26 nM | 141 nM | –
8 | Nc1nccc2scc(-c3ccccc3)c12 | > 12500 nM | – | –
9 | Nc1nccc2scc(-c3ccc(NC(=O)Nc4ccsc4)cc3)c12 | 38 nM | 61 nM | –
10 | Cc1cc(C)cc(NC(=O)Nc2ccc(-c3csc4ccnc(N)c34)cc2)c1 | 16 nM | 48 nM | –
11 | Nc1nccc2scc(-c3ccc(NC(=O)Nc4cccc5ccccc45)cc3)c12 | 75 nM | 895 nM | –
12 | Cc1cccc(N(C)C(=O)Nc2ccc(-c3csc4ccnc(N)c34)cc2)c1 | 4900 nM | – | –
13 | CNC(=O)c1cccc(-c2cnc(N)c3c(-c4ccc(NC(=O)Nc5cccc(C)c5)cc4)csc23)c1 | 11 nM | 56 nM | –
14 | Nc1nccc2scc(-c3ccc(NC(=O)NC4CCCCC4)cc3)c12 | 491 nM | – | –
15 | Cc1cccc(NC(=O)Nc2ccc(-c3csc4c(-c5ccc(O)cc5)cnc(N)c34)cc2)c1 | 11 nM | 29 nM | –
16 | Cc1ccc(NC(=O)Nc2ccc(-c3csc4ccnc(N)c34)cc2)cc1C | 10 nM | 41 nM | –
17 | Nc1nccc2scc(-c3ccc(NC(=O)Nc4cccs4)cc3)c12 | 30 nM | 48 nM | –
18 | Cc1cccc(NC(=O)N(C)c2ccc(-c3csc4ccnc(N)c34)cc2)c1 | 23 nM | – | –
19 | Cc1cccc(CC(=O)Nc2ccc(-c3csc4ccnc(N)c34)cc2)c1 | 520 nM | – | –
20 | Nc1nccc2scc(-c3ccc(NC(=O)c4ccccc4)cc3)c12 | 12000 nM | – | –

Second part, led by results:

Row | IC50 [1] | IC50 [2] | Compound | also measured
21 | 420 nM | – | Nc1nccc2scc(-c3ccc(NC(=O)NC4CCCC4)cc3)c12 | –
22 | 13 nM | 33 nM | Cc1cccc(NC(=O)Nc2ccc(-c3csc4c(-c5ccccc5)cnc(N)c34)cc2)c1 | –
23 | 388 nM | – | Cc1cccc(NC(=O)Nc2ccc(-c3csc4c(-c5cncc6ccccc56)cnc(N)c34)cc2)c1 | –
24 | 152 nM | – | Cc1ccccc1NC(=O)Nc1ccc(-c2csc3ccnc(N)c23)cc1 | –
25 | 8 nM | 1 nM | Cc1cccc(NC(=O)Nc2ccc(-c3csc4c(-c5cncnc5)cnc(N)c34)cc2)c1 | –
26 | 21 nM | 15 nM | Nc1nccc2scc(-c3ccc(NC(=O)Nc4ccc5ccccc5c4)cc3)c12 | –
27 | 27 nM | – | Cc1cccc(NC(=O)Nc2ccc(-c3c(C)sc4ccnc(N)c34)cc2)c1 | –
28 | 4900 nM | – | Nc1ccc(-c2csc3ccnc(N)c23)cc1 | –
29 | 45 nM | 198 nM | N#Cc1cccc(NC(=O)Nc2ccc(-c3csc4ccnc(N)c34)cc2)c1 | –

From ChEMBL document CHEMBL1144590, “Thienopyridine urea inhibitors of KDR kinase” (Bioorg Med Chem Lett, 2007)
